Experimental data reported in article PMC8955020, “Pharmacokinetics of Nafamostat, a Potent Serine Protease Inhibitor, by a Novel LC-MS/MS Analysis” (Molecules, 2022).
Where two headings read alike, the source gives them in different places.

What was measured:
[1] = parameters: method as in PMID 18392693; conditions: humans; cited from earlier work
[2] = Pharmacokinetics of nafamostat in rats after intravenous injection and oral administration (LC-MS/MS, non-compartmental); format: in vivo; conditions: rat
Procedure: Therefore, nafamostat dissolved in 5% DMSO was administered by intravenous injection via penile vein at a dose of 2 mg/kg (n = 5). For oral administration, nafamostat was dissolved in two types of vehicles: (1) 10% DMSO, (2) 10% DMSO with 10% Tween 80, and orally administered at a dose of 20 mg/kg (n = 5). […] The animal study was approved by the Ethics Committee for the Treatment of Laboratory Animals at Sungkyunkwan University (SKKUIACUC2021-01-57-1) and conducted in accordance with the standard operating procedures (SOPs). Male Sprague–Dawley rats (7 weeks, 188–204 g; DBL, Eumseong, Korea) were kept in plastic cages with free access to a standard diet (Cargill Agri Purina, Seongnam, Korea) and water. The animals were maintained at a temperature of 23 ± 2 °C with a 12 h light–dark cycle and relative humidity of 50 ± 10%. Nafamostat dissolved in 5% DMSO (1 mg/mL) was administered by intravenous injection via penile vein at a dose of 2 mg/kg (n = 5). Approximately 0.3 mL of the venous blood samples were collected at 5, 10, 15, 30 min, 1, 1.5, 2, 3, 4, 6, 8, and 12 h after drug administration directly from the jugular vein. For oral administration, nafamostat was dissolved in two types of vehicle: (1) 10% DMSO, (2) 10% DMSO with 10% Tween 80. The prepared nafamostat solution in Vehicle 1 or Vehicle 2 was orally administered at a dose of 20 mg/kg (n = 5). Approximately 0.3 mL of the venous blood samples were collected at 15, 30, 45 min, 1, 1.5, 2, 3, 4, 6, 8, and 12 h after drug administration directly from the jugular vein. Plasma samples were obtained by centrifugation of the blood samples at 15,000× g for 5 min. Finally, 150 μL of the plasma samples were mixed with 3 μL of the 5.5 mol/L HCl and stored at −20 °C until analysis. The plasma nafamostat concentration–time data were analyzed by a non-compartmental method using the nonlinear least-squares regression program, Phoenix WinNonlin (Version 6.4, Certara, L.P., Princeton, NJ, USA).

[3] = Stability of nafamostat in rat plasma (autosampler, freeze/thaw, short-term, long-term); format: in vitro ADME; conditions: for Percentage over Theoretical Concentration, Long-Term Stability: 2 weeks; for Percentage over Theoretical Concentration, Freeze/Thaw Stability: 5 cycles; for Percentage over Theoretical Concentration, Autosampler Stability / Percentage over Theoretical Concentration, Short-Term Stability: 24 h; for Percentage over Theoretical Concentration, Autosampler Stability: 4 °C; for Percentage over Theoretical Concentration, Short-Term Stability: 20 °C
Procedure: The stability of the nafamostat in the rat plasma was determined under four different storage conditions. […] The stability of nafamostat and IS was examined under four different conditions using three replicates of low, medium, and high QC samples in the rat plasma. The autosampler stability was determined by analyzing the QC samples left in the autosampler at 4 °C for 24 h. The freeze–thaw stability was determined by analyzing the QC samples subject to five freeze–thaw cycles. The short-term stability was determined by analyzing the QC samples left at room temperature for 24 h. […] All stability data were expressed as the percentage of the mean response of the QC samples for stability tests vs. those of the freshly prepared samples at the same concentrations.

[4] = Effect of pH on stability of nafamostat in plasma under different storage conditions; format: in vitro ADME, rat; conditions: 160 ng/mL in plasma
Procedure: Nafamostat in the biological fluid is highly unstable because it is rapidly hydrolyzed by erythrocytes in the blood, as well as by arylesterase in the plasma. Quick plasma preparation is one of the general stabilization strategies for unstable compounds in the biological matrices. Therefore, to prevent the hydrolysis of nafamostat by erythrocytes after acquiring the blood samples, the centrifugation time of the blood samples was shortened from 10 to 5 min. In addition, the stability of nafamostat was examined by modulating the pH of plasma samples to determine the optimal pH to minimize the enzymatic hydrolysis. […] Nafamostat concentrations were also determined under various storage conditions, i.e., (A) immediately, (B) after 24 h left at room temperature, (C) after being subjected to five freeze–thaw cycles, and (D) after 10 days at −20 °C. […] Accordingly, once plasma samples were collected, 3 µL of 5.5 mol/L HCl was added to 150 µL of the collected plasma samples to keep the plasma samples in 0.35% HCl (pH = 1.2).

[5] = male, Sprague-Dawley, plasma, iv, 2 mg/kg, IV injection 2 mg/kg in 5% DMSO
[6] = male, Sprague-Dawley, plasma, po, 20 mg/kg, oral 20 mg/kg, vehicle 1: 10% DMSO
[7] = male, Sprague-Dawley, plasma, po, 20 mg/kg, oral 20 mg/kg, vehicle 2: 10% DMSO + 10% Tween 80
[8] = IV injection 2 mg/kg in 5% DMSO

Vd ([2]; male, Sprague-Dawley, plasma, IV injection 2 mg/kg in 5% DMSO, read-out: Vss): 0.99 ± 0.65 L/kg
CL/F ([2]; male, Sprague-Dawley, plasma, oral 20 mg/kg, vehicle 2: 10% DMSO + 10% Tween 80, read-out: CL or CL/F): 319 ± 119 L/h/kg
AUC(0-inf) [2, 5]: 447 ± 35.9 ng·h/mL
half-life [2, 5]: 1.39 h
Cmax ([2]; male, Sprague-Dawley, plasma, iv, 2 mg/kg, IV injection 2 mg/kg in 5% DMSO, plasma, read-out: C0 or Cmax): 5290 ± 808 ng/mL
AUC(0-inf) [2, 6]: 42.4 ± 12.5 ng·h/mL
Tmax [2, 6]: 0.45 ± 0.21 h
bioavailability [2, 6]: 0.95 ± 0.25%
half-life [2, 6]: 2.21 ± 1.3 h
Cmax ([2]; male, Sprague-Dawley, plasma, po, 20 mg/kg, oral 20 mg/kg, vehicle 1: 10% DMSO, read-out: C0 or Cmax): 27.8 ± 8.17 ng/mL
AUC(0-inf) [2, 7]: 71.2 ± 29.9 ng·h/mL
Tmax [2, 7]: 1 ± 0.53 h
bioavailability [2, 7]: 1.59 ± 0.6%
half-life [2, 7]: 2.3 ± 1.11 h
Cmax ([2]; male, Sprague-Dawley, plasma, po, 20 mg/kg, oral 20 mg/kg, vehicle 2: 10% DMSO + 10% Tween 80, read-out: C0 or Cmax): 33.2 ± 18.8 ng/mL
CL or CL/F [2, 8]: 4.495 ± 0.367 L/h/kg
Vz or Vz/F [2, 8]: 8.75 ± 3.80 L/kg
t1/2 ([2]; IV injection 2 mg/kg in 5% DMSO, plasma, 2 mg/kg): 1.34 ± 0.51 h
Vz or Vz/F ([2]; oral 20 mg/kg, vehicle 1: 10% DMSO): 1906.08 ± 1841.14 L/kg
Vz or Vz/F ([2]; oral 20 mg/kg, vehicle 2: 10% DMSO + 10% Tween 80): 998.85 ± 401.04 L/kg
time to reach peak concentration (Cmax) ([2]; oral administration 20 mg/kg, both vehicles): ≤ 1.0 h
Percentage over Theoretical Concentration, Long-Term Stability ([3]; 2 ng/mL): 97.25 ± 4.73%
Percentage over Theoretical Concentration, Freeze/Thaw Stability ([3]; 2 ng/mL): 99.02 ± 3.61%
Percentage over Theoretical Concentration, Autosampler Stability ([3]; 2 ng/mL): 97.2 ± 4.98%
Percentage over Theoretical Concentration, Short-Term Stability ([3]; 2 ng/mL): 96.57 ± 2.66%
Percentage over Theoretical Concentration, Long-Term Stability ([3]; 80 ng/mL): 99.38 ± 0.49%
Percentage over Theoretical Concentration, Freeze/Thaw Stability ([3]; 80 ng/mL): 100.40 ± 0.20%
Percentage over Theoretical Concentration, Autosampler Stability ([3]; 80 ng/mL): 101.31 ± 2.00%
Percentage over Theoretical Concentration, Short-Term Stability ([3]; 80 ng/mL): 101.11 ± 1.95%
Percentage over Theoretical Concentration, Long-Term Stability ([3]; 160 ng/mL): 96.62 ± 1.63%
Percentage over Theoretical Concentration, Freeze/Thaw Stability ([3]; 160 ng/mL): 98.44 ± 0.58%
Percentage over Theoretical Concentration, Autosampler Stability ([3]; 160 ng/mL): 97.45 ± 0.31%
Percentage over Theoretical Concentration, Short-Term Stability ([3]; 160 ng/mL): 97.64 ± 2.18%
stability (observed vs theoretical concentration) ([4]; 0.1% ammonium hydroxide (pH = 10.5), A: immediately): 29.29 ± 1.26%
stability (observed vs theoretical concentration) ([4]; 0.1% ammonium hydroxide (pH = 10.5), B: after 24 h at room temperature): 0.09 ± 0.01%
stability (observed vs theoretical concentration) ([4]; 0.1% ammonium hydroxide (pH = 10.5), C: after 5 freeze-thaw cycles): 5.21 ± 0.32%
stability (observed vs theoretical concentration) ([4]; 0.1% ammonium hydroxide (pH = 10.5), D: after 10 days at −20 °C): 0.13 ± 0.08%
stability (observed vs theoretical concentration) ([4]; 0.1% formic acid (pH = 2.8), A: immediately): 66.56 ± 3.73%
stability (observed vs theoretical concentration) ([4]; 0.1% formic acid (pH = 2.8), B: after 24 h at room temperature): 0.16 ± 0.05%
stability (observed vs theoretical concentration) ([4]; 0.1% formic acid (pH = 2.8), C: after 5 freeze-thaw cycles): 48.25 ± 2.26%
stability (observed vs theoretical concentration) ([4]; 0.1% formic acid (pH = 2.8), D: after 10 days at −20 °C): 0.12 ± 0.07%
stability (observed vs theoretical concentration) ([4]; 0.35% HCl (pH = 1.2), A: immediately): 103.67 ± 0.60%
stability (observed vs theoretical concentration) ([4]; 0.35% HCl (pH = 1.2), B: after 24 h at room temperature): 104.42 ± 2.50%
stability (observed vs theoretical concentration) ([4]; 0.35% HCl (pH = 1.2), C: after 5 freeze-thaw cycles): 103.12 ± 2.19%
stability (observed vs theoretical concentration) ([4]; 0.35% HCl (pH = 1.2), D: after 10 days at −20 °C): 107.15 ± 0.69%
stability (observed vs theoretical concentration) ([4]; 1.0% formic acid (pH = 2.2), A: immediately): 97.66 ± 6.58%
stability (observed vs theoretical concentration) ([4]; 1.0% formic acid (pH = 2.2), B: after 24 h at room temperature): 100.05 ± 1.83%
stability (observed vs theoretical concentration) ([4]; 1.0% formic acid (pH = 2.2), C: after 5 freeze-thaw cycles): 101.86 ± 1.51%
stability (observed vs theoretical concentration) ([4]; 1.0% formic acid (pH = 2.2), D: after 10 days at −20 °C): 105.67 ± 0.59%
stability (observed vs theoretical concentration) ([4]; saline (pH = 5.5), A: immediately): 63.47 ± 2.32%
stability (observed vs theoretical concentration) ([4]; saline (pH = 5.5), B: after 24 h at room temperature): 0.13 ± 0.03%
stability (observed vs theoretical concentration) ([4]; saline (pH = 5.5), C: after 5 freeze-thaw cycles): 19.01 ± 1.61%
stability (observed vs theoretical concentration) ([4]; saline (pH = 5.5), D: after 10 days at −20 °C): 9.93 ± 1.76%
SMILES: N=C(N)c1ccc2cc(OC(=O)c3ccc(N=C(N)N)cc3)ccc2c1 [nafamostat, 6′-amidino-2-naphthyl 4-guanidinobenzoate]
t1/2(β) [1]: 1.87 to 2.13 h
